From patent publication US8389523B2, “Substituted quinoxaline and an agrochemical composition thereof” (Kumiai Chemical Industry Co., Ltd., priority 2007, dated 2013)

Legend:
Assay type in all cases: in vivo
Design in all cases: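 grade 0 to 5 of growth suppression where 5 is 90% or more and 0 below 10%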
Amaranthus viridis L. [1] = experiment: Herbicidal effects in upland field soil treatment (Test Example 2); conditions: 1000 g active ingredient per hectare, 21st day after treatment, criteria of Table 138
Outline: (§1)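 Herbicidal effect graded 21 days after treatment, plants kept in greenhouse. Treatment was a soil-surface spray of wettable powder in water, 1000 g a.i./ha in 1000 L/ha, applied after sowing and covering seeds.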

[2] = test system: Abutilon theophrasti medicus; experiment: as above; conditions: 1000 g active ingredient per hectare, 21st day after treatment, criteria of Table 138
Outline: as §1

[3] = test system: Echinochloa oryzicola Vasing; experiment: Herbicidal effects in paddy field soil treatment (Test Example 1); conditions: paddy field soil treatment; 1000 g of the active ingredient per hectare; wettable powder added dropwise on water surface; 21st day after treatment
Outline: (§2)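 Application rate 1000 g a.i./ha, delivered as water-diluted wettable powder onto flooded (3 cm) paddy soil one day after sowing. Plants kept in a greenhouse and evaluated for herbicidal effect on day 21 post-treatment.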

[4] = test system: Monochoria vaginalis (Burm. f.) Presl var. plantaginea (Roxb.) Solms-Laub.; experiment: as above; conditions: paddy field soil treatment; 1000 g of the active ingredient per hectare; wettable powder added dropwise on water surface; 21st day after treatment
Outline: as §2

[5] = test system: Scirpus juncoides Roxb. var. ohwianus. T. Koyama; experiment: as above; conditions: paddy field soil treatment; 1000 g of the active ingredient per hectare; wettable powder added dropwise on water surface; 21st day after treatment
Outline: as §2

Amaranthus viridis L. [6] = experiment: Herbicidal effects in upland field foliar treatment (Test Example 3); conditions: criteria of Table 138; for herbicidal effects on Amaranthus viridis L.: 1000 g of the active ingredient per hectare, 14th day after the treatment, wettable powder; for herbicidal effect (index) on Amaranthus viridis L.: 1000 g active ingredient per hectare, 14th day after treatment
Outline: (§3)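 Foliar spray of diluted wettable powder, 1000 g a.i./ha in 1000 L/ha, onto two-week-old greenhouse-grown seedlings in upland field soil. Plants kept in the greenhouse, with effect rated on a criteria scale at day 14.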

[7] = test system: Abutilon theophrasti medicus; experiment: as above; conditions: criteria of Table 138; for herbicidal effects on Abutilon theophrasti medicus: 1000 g of the active ingredient per hectare, 14th day after the treatment, wettable powder; for herbicidal effect (index) on Abutilon theophrasti medicus: 1000 g active ingredient per hectare, 14th day after treatment
Outline: as §3

[8] = test system: Echinochloa crus-galli (L.) P. Beauv. var. crus-galli; experiment: as above; conditions: criteria of Table 138; for herbicidal effects on Echinochloa crus-galli (L.) P. Beauv. var. crus-galli: 1000 g of the active ingredient per hectare, 14th day after the treatment, wettable powder; for herbicidal effect (index) on Echinochloa crus-galli (L.) P. Beauv. var. crus-galli: 1000 g active ingredient per hectare, 14th day after treatment
Outline: as §3

## COc1ccc2nc(C(=O)C3=C(O)CCCC3=O)c(=O)n(-c3ccc(OC(F)F)cc3)c2c1 [II-305]
Amaranthus viridis L. [1]
  herbicidal effect (index) on Amaranthus viridis L.: 5
[2]
  herbicidal effect (index) on Abutilon theophrasti medicus: 5
[3]
  Herbicidal effects index, Echinochloa oryzicola Vasing: 5
[4]
  Herbicidal effects index, Monochoria vaginalis (Burm. f.) Presl var. plantaginea (Roxb.) Solms-Laub.: 5
[5]
  Herbicidal effects index, Scirpus juncoides Roxb. var. ohwianus. T. Koyama: 5
Amaranthus viridis L. [6]
  herbicidal effects on Amaranthus viridis L.: 5
[7]
  herbicidal effects on Abutilon theophrasti medicus: 5
[8]
  herbicidal effects on Echinochloa crus-galli (L.) P. Beauv. var. crus-galli: 5

## CC(C)(C)OC(=O)Cn1c(=O)c(C(=O)C2=C(O)CCCC2=O)nc2ccccc21 [Compound I-99]
Amaranthus viridis L. [1]
  herbicidal effect (index) on Amaranthus viridis L.: 5
[2]
  herbicidal effect (index) on Abutilon theophrasti medicus: 5
[3]
  Herbicidal effects index, Echinochloa oryzicola Vasing: 5
[4]
  Herbicidal effects index, Monochoria vaginalis (Burm. f.) Presl var. plantaginea (Roxb.) Solms-Laub.: 5
[5]
  Herbicidal effects index, Scirpus juncoides Roxb. var. ohwianus. T. Koyama: 5
Amaranthus viridis L. [6]
  herbicidal effect (index) on Amaranthus viridis L.: 5
[7]
  herbicidal effect (index) on Abutilon theophrasti medicus: 5
[8]
  herbicidal effect (index) on Echinochloa crus-galli (L.) P. Beauv. var. crus-galli: 5

## COCCn1c(=O)c(C(=O)C2=C(O)CCCC2=O)nc2ccccc21 [Compound I-88]
Amaranthus viridis L. [1]
  herbicidal effect (index) on Amaranthus viridis L.: 5
[2]
  herbicidal effect (index) on Abutilon theophrasti medicus: 5
[3]
  Herbicidal effects index, Echinochloa oryzicola Vasing: 5
[4]
  Herbicidal effects index, Monochoria vaginalis (Burm. f.) Presl var. plantaginea (Roxb.) Solms-Laub.: 5
[5]
  Herbicidal effects index, Scirpus juncoides Roxb. var. ohwianus. T. Koyama: 5
Amaranthus viridis L. [6]
  herbicidal effect (index) on Amaranthus viridis L.: 5
[7]
  herbicidal effect (index) on Abutilon theophrasti medicus: 5
[8]
  herbicidal effect (index) on Echinochloa crus-galli (L.) P. Beauv. var. crus-galli: 5

## O=C1CCCC(O)=C1C(=O)c1nc2ccccc2n(-c2ccc(Cl)cn2)c1=O [I-177]
Amaranthus viridis L. [1]
  herbicidal effect (index) on Amaranthus viridis L.: 5
[2]
  herbicidal effect (index) on Abutilon theophrasti medicus: 5
[3]
  Herbicidal effects index, Echinochloa oryzicola Vasing: 5
[4]
  Herbicidal effects index, Monochoria vaginalis (Burm. f.) Presl var. plantaginea (Roxb.) Solms-Laub.: 5
[5]
  Herbicidal effects index, Scirpus juncoides Roxb. var. ohwianus. T. Koyama: 5
Amaranthus viridis L. [6]
  herbicidal effect (index) on Amaranthus viridis L.: 5
[7]
  herbicidal effect (index) on Abutilon theophrasti medicus: 5
[8]
  herbicidal effect (index) on Echinochloa crus-galli (L.) P. Beauv. var. crus-galli: 5

## CC1(C)CCC(=O)C(C(=O)c2nc3ccccc3n(-c3ccc4c(c3)OCCO4)c2=O)=C1O [II-227]
Amaranthus viridis L. [1]
  herbicidal effect (index) on Amaranthus viridis L.: 5
[2]
  herbicidal effect (index) on Abutilon theophrasti medicus: 5
[3]
  Herbicidal effects index, Echinochloa oryzicola Vasing: 5
[4]
  Herbicidal effects index, Monochoria vaginalis (Burm. f.) Presl var. plantaginea (Roxb.) Solms-Laub.: 5
[5]
  Herbicidal effects index, Scirpus juncoides Roxb. var. ohwianus. T. Koyama: 5
Amaranthus viridis L. [6]
  herbicidal effects on Amaranthus viridis L.: 5
[7]
  herbicidal effects on Abutilon theophrasti medicus: 4
[8]
  herbicidal effects on Echinochloa crus-galli (L.) P. Beauv. var. crus-galli: 5

## CC(=O)Cn1c(=O)c(C(=O)C2=C(O)CCCC2=O)nc2ccccc21 [Compound I-94]
Amaranthus viridis L. [1]
  herbicidal effect (index) on Amaranthus viridis L.: 4
[2]
  herbicidal effect (index) on Abutilon theophrasti medicus: 5
[3]
  Herbicidal effects index, Echinochloa oryzicola Vasing: 5
[4]
  Herbicidal effects index, Monochoria vaginalis (Burm. f.) Presl var. plantaginea (Roxb.) Solms-Laub.: 5
[5]
  Herbicidal effects index, Scirpus juncoides Roxb. var. ohwianus. T. Koyama: 5
Amaranthus viridis L. [6]
  herbicidal effect (index) on Amaranthus viridis L.: 5
[7]
  herbicidal effect (index) on Abutilon theophrasti medicus: 5
[8]
  herbicidal effect (index) on Echinochloa crus-galli (L.) P. Beauv. var. crus-galli: 5

## Cc1cc(Cn2c(=O)c(C(=O)C3=C(O)CCCC3=O)nc3ccccc32)on1 [I-213]
Amaranthus viridis L. [1]
  herbicidal effect (index) on Amaranthus viridis L.: 5
[2]
  herbicidal effect (index) on Abutilon theophrasti medicus: 5
[3]
  Herbicidal effects index, Echinochloa oryzicola Vasing: 4
[4]
  Herbicidal effects index, Monochoria vaginalis (Burm. f.) Presl var. plantaginea (Roxb.) Solms-Laub.: 5
[5]
  Herbicidal effects index, Scirpus juncoides Roxb. var. ohwianus. T. Koyama: 5
Amaranthus viridis L. [6]
  herbicidal effect (index) on Amaranthus viridis L.: 5
[7]
  herbicidal effect (index) on Abutilon theophrasti medicus: 5
[8]
  herbicidal effect (index) on Echinochloa crus-galli (L.) P. Beauv. var. crus-galli: 5

## O=C1CCCC(O)=C1C(=O)c1nc2ccccc2n(-c2ccc([N+](=O)[O-])cc2)c1=O [II-131]
Amaranthus viridis L. [1]
  herbicidal effect (index) on Amaranthus viridis L.: 5
[2]
  herbicidal effect (index) on Abutilon theophrasti medicus: 5
[3]
  Herbicidal effects index, Echinochloa oryzicola Vasing: 5
[4]
  Herbicidal effects index, Monochoria vaginalis (Burm. f.) Presl var. plantaginea (Roxb.) Solms-Laub.: 5
[5]
  Herbicidal effects index, Scirpus juncoides Roxb. var. ohwianus. T. Koyama: 5
Amaranthus viridis L. [6]
  herbicidal effects on Amaranthus viridis L.: 5
[7]
  herbicidal effects on Abutilon theophrasti medicus: 5
[8]
  herbicidal effects on Echinochloa crus-galli (L.) P. Beauv. var. crus-galli: 5

## Cc1cccc(-n2c(=O)c(C(=O)C3=C(O)CCCC3=O)nc3ccccc32)n1 [I-173, 3-(2-hydroxy-6-oxo-1-cyclohexenecarbonyl)-1-(6-methyl-2-pyridyl)-quinoxalin-2 (1H)-one]
Amaranthus viridis L. [1]
  herbicidal effect (index) on Amaranthus viridis L.: 5
[2]
  herbicidal effect (index) on Abutilon theophrasti medicus: 5
[3]
  Herbicidal effects index, Echinochloa oryzicola Vasing: 5
[4]
  Herbicidal effects index, Monochoria vaginalis (Burm. f.) Presl var. plantaginea (Roxb.) Solms-Laub.: 5
[5]
  Herbicidal effects index, Scirpus juncoides Roxb. var. ohwianus. T. Koyama: 5
Amaranthus viridis L. [6]
  herbicidal effect (index) on Amaranthus viridis L.: 5
[7]
  herbicidal effect (index) on Abutilon theophrasti medicus: 5
[8]
  herbicidal effect (index) on Echinochloa crus-galli (L.) P. Beauv. var. crus-galli: 5

## O=C1CCCC(O)=C1C(=O)c1nc2cccnc2n(-c2ccc(F)cc2)c1=O [IV-8]
Amaranthus viridis L. [1]
  herbicidal effect (index) on Amaranthus viridis L.: 5
[2]
  herbicidal effect (index) on Abutilon theophrasti medicus: 5
[3]
  Herbicidal effects index, Echinochloa oryzicola Vasing: 5
[4]
  Herbicidal effects index, Monochoria vaginalis (Burm. f.) Presl var. plantaginea (Roxb.) Solms-Laub.: 5
[5]
  Herbicidal effects index, Scirpus juncoides Roxb. var. ohwianus. T. Koyama: 5
Amaranthus viridis L. [6]
  herbicidal effects on Amaranthus viridis L.: 5
[7]
  herbicidal effects on Abutilon theophrasti medicus: 5
[8]
  herbicidal effects on Echinochloa crus-galli (L.) P. Beauv. var. crus-galli: 5

## Cn1c(=O)c(C(=O)C2=C(O)CCCC2=O)nc2cccc(Cl)c21 [I-229]
Amaranthus viridis L. [1]
  herbicidal effect (index) on Amaranthus viridis L.: 5
[2]
  herbicidal effect (index) on Abutilon theophrasti medicus: 5
[3]
  Herbicidal effects index, Echinochloa oryzicola Vasing: 4
[4]
  Herbicidal effects index, Monochoria vaginalis (Burm. f.) Presl var. plantaginea (Roxb.) Solms-Laub.: 5
[5]
  Herbicidal effects index, Scirpus juncoides Roxb. var. ohwianus. T. Koyama: 5
Amaranthus viridis L. [6]
  herbicidal effect (index) on Amaranthus viridis L.: 5
[7]
  herbicidal effect (index) on Abutilon theophrasti medicus: 5
[8]
  herbicidal effect (index) on Echinochloa crus-galli (L.) P. Beauv. var. crus-galli: 4

## CC1COc2cc(-n3c(=O)c(C(=O)C4=C(O)CCCC4=O)nc4ccccc43)ccc2O1 (stereo not shown) [II-231]
Amaranthus viridis L. [1]
  herbicidal effect (index) on Amaranthus viridis L.: 5
[2]
  herbicidal effect (index) on Abutilon theophrasti medicus: 4
[3]
  Herbicidal effects index, Echinochloa oryzicola Vasing: 5
[4]
  Herbicidal effects index, Monochoria vaginalis (Burm. f.) Presl var. plantaginea (Roxb.) Solms-Laub.: 5
[5]
  Herbicidal effects index, Scirpus juncoides Roxb. var. ohwianus. T. Koyama: 5
Amaranthus viridis L. [6]
  herbicidal effects on Amaranthus viridis L.: 5
[7]
  herbicidal effects on Abutilon theophrasti medicus: 5
[8]
  herbicidal effects on Echinochloa crus-galli (L.) P. Beauv. var. crus-galli: 5

## O=C(C1=C(O)C2CCC(C2)C1=O)c1nc2cccnc2n(-c2ccccc2)c1=O (stereo not shown) [IV-4]
Amaranthus viridis L. [1]
  herbicidal effect (index) on Amaranthus viridis L.: 5
[2]
  herbicidal effect (index) on Abutilon theophrasti medicus: 5
[3]
  Herbicidal effects index, Echinochloa oryzicola Vasing: 5
[4]
  Herbicidal effects index, Monochoria vaginalis (Burm. f.) Presl var. plantaginea (Roxb.) Solms-Laub.: 5
[5]
  Herbicidal effects index, Scirpus juncoides Roxb. var. ohwianus. T. Koyama: 5
Amaranthus viridis L. [6]
  herbicidal effects on Amaranthus viridis L.: 5
[7]
  herbicidal effects on Abutilon theophrasti medicus: 5
[8]
  herbicidal effects on Echinochloa crus-galli (L.) P. Beauv. var. crus-galli: 5

## O=C1CCCC(O)=C1C(=O)c1nc2ccccc2n(-c2ccc(OC(F)F)cc2)c1=O [II-95]
Amaranthus viridis L. [1]
  herbicidal effect (index) on Amaranthus viridis L.: 5
[2]
  herbicidal effect (index) on Abutilon theophrasti medicus: 5
[3]
  Herbicidal effects index, Echinochloa oryzicola Vasing: 5
[4]
  Herbicidal effects index, Monochoria vaginalis (Burm. f.) Presl var. plantaginea (Roxb.) Solms-Laub.: 5
[5]
  Herbicidal effects index, Scirpus juncoides Roxb. var. ohwianus. T. Koyama: 5
Amaranthus viridis L. [6]
  herbicidal effects on Amaranthus viridis L.: 5
[7]
  herbicidal effects on Abutilon theophrasti medicus: 5
[8]
  herbicidal effects on Echinochloa crus-galli (L.) P. Beauv. var. crus-galli: 5
